Measurements reported in BindingDB's records for doi:10.1016/j.bmc.2012.11.021 (University of Bonn, 2012).

Legend:
[1] = biological target: T1, Adenosine receptor A2b (Homo sapiens, UniProt P29275); assay: Displacement of [3H]PSB-603 from human recombinant adenosine A2B receptor expressed in CHO cells after 75 mins by liquid scintillation counting analysis
T1 sequence (P29275 whole entry): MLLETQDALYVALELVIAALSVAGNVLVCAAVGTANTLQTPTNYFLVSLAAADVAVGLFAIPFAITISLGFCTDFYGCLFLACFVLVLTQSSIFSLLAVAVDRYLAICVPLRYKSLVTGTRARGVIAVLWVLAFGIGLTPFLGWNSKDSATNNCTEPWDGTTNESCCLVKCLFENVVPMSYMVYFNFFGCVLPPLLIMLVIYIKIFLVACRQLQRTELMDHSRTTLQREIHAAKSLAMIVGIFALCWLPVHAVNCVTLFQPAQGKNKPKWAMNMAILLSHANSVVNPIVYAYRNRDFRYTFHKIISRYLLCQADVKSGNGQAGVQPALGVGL

[2] = biological target: Adenosine receptor A2a (Rattus norvegicus, UniProt P30543); assay: Displacement of [3H]CGS21680 from adenosine A2A receptor in rat brain striatal membrane after 60 mins by liquid scintillation counting analysis
Sequence of Adenosine receptor A2a (P30543 whole entry): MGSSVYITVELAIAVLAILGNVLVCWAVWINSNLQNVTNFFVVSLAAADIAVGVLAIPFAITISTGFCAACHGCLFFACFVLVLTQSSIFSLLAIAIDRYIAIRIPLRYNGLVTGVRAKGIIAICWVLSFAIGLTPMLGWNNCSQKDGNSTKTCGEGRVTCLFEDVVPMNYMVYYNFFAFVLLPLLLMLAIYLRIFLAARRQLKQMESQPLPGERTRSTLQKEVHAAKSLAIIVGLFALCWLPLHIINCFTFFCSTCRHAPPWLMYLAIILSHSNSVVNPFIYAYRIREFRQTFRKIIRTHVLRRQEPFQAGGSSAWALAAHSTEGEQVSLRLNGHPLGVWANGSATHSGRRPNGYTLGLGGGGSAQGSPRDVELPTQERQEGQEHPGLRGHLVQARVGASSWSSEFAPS

| Structure (SMILES) | Ki [1] | Ki [2] |
| --- | --- | --- |
| CN(NCC(=O)[C@@H](O)[C@@H](O)[C@H](O)CO)c1nc(N)c2ncn([C@@H]3O[C@H](CO)[C@@H](O)[C@H]3O)c2n1 | > 10 µM | > 1 µM |
| CN(NCC(=O)[C@@H](O)[C@@H](O)CO)c1nc(N)c2ncn([C@@H]3O[C@H](CO)[C@@H](O)[C@H]3O)c2n1 | > 10 µM | > 1 µM |
| Nc1nc(NNCC(=O)[C@@H](O)[C@@H](O)CO)nc2c1ncn2[C@@H]1O[C@H](CO)[C@@H](O)[C@H]1O | > 10 µM | > 1 µM |
| Nc1nc(NNC(CO)C(=O)[C@@H](O)[C@@H](O)CO)nc2c1ncn2[C@@H]1O[C@H](CO)[C@@H](O)[C@H]1O (some centres not stated) | > 10 µM | > 1 µM |
| CN(NCC(=O)[C@H](O)[C@@H](O)[C@@H](O)CO)c1nc(N)c2ncn([C@@H]3O[C@H](CO)[C@@H](O)[C@H]3O)c2n1 | > 10 µM | > 1 µM |
| CN(NC(CO)C(=O)[C@@H](O)[C@@H](O)CO)c1nc(N)c2ncn([C@@H]3O[C@H](CO)[C@@H](O)[C@H]3O)c2n1 (some centres not stated) | > 10 µM | > 1 µM |
